Legend:
patients with depression = assay: Patient responses to low dose naltrexone treatment of depression (case reports)
Procedure: Patient #1: A middle aged person suffered severe depression with recurrent major depressive episodes. […] The former pharmacologic regimen was otherwise unchanged.
Patient #3: A patient presented with treatment-resistant depression. The patient was also diagnosed with Attention Deficit Disorder. The patient initially was treated with s-citalopram 15 mg, augmented by dextro-amphetamine.
Patient #4: A patient weighing approximately 60 kg had suffered severe unremitting depression. […] Subsequently, the patient was prescribed 5 mg naltrexone daily with continuation of s-citalopram.
They were being treated with buproprion XL 300 mg, augmented with melatonin 3 mg and N-acetyl-cysteine 1200 mg.
Patient #6: A patient with multiple major depression episodes, anhedonia, apathy, low energy and poor sleep was being treated with duloxetine 60 mg and buproprion 75 mg, and mirtazpine 15 mg. […] They also called and e-mailed multiple times per day. They were being treated with Effexor XR 75 mg QHS, Xanax 0.5 mg, and Clonazepam 1.5 mg.
The patient was then co-administered 1 mg daily of naltrexone with pramipexole.
Patient #9: A middle-age person suffered severe depression with recurrent major depressive episodes and social anxiety. They were being treated with Adderall 10 mg, levothyroxine 50 mcg, and propranol 10 mg.

[1] = test system: Restless Leg Syndrome (RLS); settings: RLS treated with D2/D3 agonists pramipexole or ropinirole; Philips Respironics Actigraphy; see U.S. Ser. No. 12/603,235; cited from earlier work
[2] = test system: patients with breakthrough depression (BTD); assay: Clinical testing of low dose naltrexone treatment of depression (double-blind, placebo-controlled); assay type: in vivo, human
[3] = low dose naltrexone (e.g. less than 10 mg); cited from earlier work
[4] = biological target: C-terminal pentapeptide of the scaffolding protein filamin A (Homo sapiens, UniProt P21333); settings: Wang, Frankfurt, & Burns, 2008; cited from earlier work
Chain of C-terminal pentapeptide of the scaffolding protein filamin A (P21333 whole entry): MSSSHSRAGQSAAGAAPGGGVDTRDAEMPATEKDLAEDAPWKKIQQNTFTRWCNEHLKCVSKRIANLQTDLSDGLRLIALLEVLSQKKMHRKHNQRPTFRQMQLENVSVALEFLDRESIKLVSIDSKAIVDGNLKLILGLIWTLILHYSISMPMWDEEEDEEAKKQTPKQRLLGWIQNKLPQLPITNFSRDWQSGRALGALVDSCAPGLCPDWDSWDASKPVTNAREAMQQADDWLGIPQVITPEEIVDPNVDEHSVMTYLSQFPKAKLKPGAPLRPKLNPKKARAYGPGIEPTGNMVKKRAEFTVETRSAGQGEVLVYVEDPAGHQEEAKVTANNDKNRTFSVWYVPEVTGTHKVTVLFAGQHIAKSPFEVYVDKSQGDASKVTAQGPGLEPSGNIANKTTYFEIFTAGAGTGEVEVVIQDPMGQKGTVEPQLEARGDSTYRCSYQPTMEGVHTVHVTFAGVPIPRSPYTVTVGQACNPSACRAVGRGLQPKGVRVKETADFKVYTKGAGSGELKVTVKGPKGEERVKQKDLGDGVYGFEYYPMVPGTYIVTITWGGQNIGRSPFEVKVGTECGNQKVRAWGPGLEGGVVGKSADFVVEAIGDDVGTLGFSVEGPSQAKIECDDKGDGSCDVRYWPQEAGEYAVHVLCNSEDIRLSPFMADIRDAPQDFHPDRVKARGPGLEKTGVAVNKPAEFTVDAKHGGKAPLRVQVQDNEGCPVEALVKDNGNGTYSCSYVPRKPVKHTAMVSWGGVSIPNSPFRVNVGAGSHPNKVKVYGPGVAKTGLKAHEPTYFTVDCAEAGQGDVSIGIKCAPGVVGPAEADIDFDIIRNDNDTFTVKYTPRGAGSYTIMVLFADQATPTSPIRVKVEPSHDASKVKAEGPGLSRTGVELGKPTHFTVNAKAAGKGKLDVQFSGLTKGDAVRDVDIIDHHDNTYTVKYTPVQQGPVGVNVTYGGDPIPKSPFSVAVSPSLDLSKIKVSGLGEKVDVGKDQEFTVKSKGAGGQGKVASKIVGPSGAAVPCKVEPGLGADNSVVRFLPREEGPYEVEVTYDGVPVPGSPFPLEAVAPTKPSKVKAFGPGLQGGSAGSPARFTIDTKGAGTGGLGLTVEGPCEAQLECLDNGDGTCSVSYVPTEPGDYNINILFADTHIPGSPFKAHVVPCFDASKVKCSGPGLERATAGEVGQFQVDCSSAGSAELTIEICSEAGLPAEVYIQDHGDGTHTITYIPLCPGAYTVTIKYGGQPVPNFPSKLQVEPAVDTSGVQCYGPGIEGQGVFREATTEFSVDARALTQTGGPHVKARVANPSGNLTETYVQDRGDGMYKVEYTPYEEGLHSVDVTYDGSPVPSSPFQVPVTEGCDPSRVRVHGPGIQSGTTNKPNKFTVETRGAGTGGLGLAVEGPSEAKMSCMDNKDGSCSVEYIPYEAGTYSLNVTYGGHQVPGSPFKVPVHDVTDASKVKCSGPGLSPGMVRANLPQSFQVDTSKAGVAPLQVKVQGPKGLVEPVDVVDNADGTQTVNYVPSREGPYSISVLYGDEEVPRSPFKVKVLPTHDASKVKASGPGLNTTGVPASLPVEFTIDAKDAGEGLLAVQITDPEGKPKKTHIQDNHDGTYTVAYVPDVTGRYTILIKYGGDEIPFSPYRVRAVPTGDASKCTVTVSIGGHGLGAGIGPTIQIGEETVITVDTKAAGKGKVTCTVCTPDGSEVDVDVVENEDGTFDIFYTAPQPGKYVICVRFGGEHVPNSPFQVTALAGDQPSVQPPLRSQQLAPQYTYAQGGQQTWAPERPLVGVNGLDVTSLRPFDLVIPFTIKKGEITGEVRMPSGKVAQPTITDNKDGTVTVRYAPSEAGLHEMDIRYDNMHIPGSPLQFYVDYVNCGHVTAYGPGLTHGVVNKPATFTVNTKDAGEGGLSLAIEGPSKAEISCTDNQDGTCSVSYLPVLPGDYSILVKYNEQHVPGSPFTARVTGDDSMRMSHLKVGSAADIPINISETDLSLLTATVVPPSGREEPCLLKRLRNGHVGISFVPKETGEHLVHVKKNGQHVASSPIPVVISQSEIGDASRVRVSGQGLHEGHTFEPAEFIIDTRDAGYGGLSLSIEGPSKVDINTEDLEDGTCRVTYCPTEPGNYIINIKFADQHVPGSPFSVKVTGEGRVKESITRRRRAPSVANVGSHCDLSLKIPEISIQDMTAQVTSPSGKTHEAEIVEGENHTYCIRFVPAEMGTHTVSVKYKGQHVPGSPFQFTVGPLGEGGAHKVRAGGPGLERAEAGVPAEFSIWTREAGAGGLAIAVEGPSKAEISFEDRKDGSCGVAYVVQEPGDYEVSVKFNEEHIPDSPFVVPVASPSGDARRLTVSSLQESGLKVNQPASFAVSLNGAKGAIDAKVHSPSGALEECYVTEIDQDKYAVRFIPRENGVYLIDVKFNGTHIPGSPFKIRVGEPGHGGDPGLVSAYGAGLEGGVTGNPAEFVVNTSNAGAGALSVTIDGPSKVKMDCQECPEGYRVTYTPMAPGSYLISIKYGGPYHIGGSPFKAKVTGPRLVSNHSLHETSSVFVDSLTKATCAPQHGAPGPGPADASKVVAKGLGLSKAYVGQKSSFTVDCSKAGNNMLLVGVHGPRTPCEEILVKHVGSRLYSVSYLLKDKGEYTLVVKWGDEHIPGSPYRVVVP

O=C1CCc2ccc(OCCCCN3CCN(c4cccc(Cl)c4Cl)CC3)cc2N1 [aripiprazole, 7-{4-[4-(2,3-Dichlorophenyl)piperazin-1-yl]butoxy}-3,4-dihydroquinolin-2(1H)-one]
earlier response of depression (patients with depression; Patient #1, in the past, before naltrexone): transiently responded

O=C1CC[C@@]2(O)[C@H]3Cc4ccc(O)c5c4[C@@]2(CCN3CC2CC2)[C@H]1O5 [naltrexone, 17-(cyclopropylmethyl)-4,5α-epoxy-3,14-dihydroxymorphinan-6-one]
control of periodic limb movements of sleep [1]: equivalent control of limb movements at one-half the prior dose of D2/D3 agonists | rates of response on all outcome measures (HAM-D-17, HAM-D-28, MADRS-10, MADRS-15, CGI-S, CGI-I) ([2]; 1 mg bid, on antidepressant regimen containing a pro-dopaminergic agent, versus placebo, three weeks): higher rates of response | persistence of response ([2]; 1 mg bid, patients on active drug followed six weeks): continued during the entire six week trial period | Quality of Life, Enjoyment, and Satisfaction Questionnaire (Q-LES-Q) score ([2]; compared to placebo controls): greater improvement | Sheehan Disability Scale (SDS) score ([2]; compared to placebo controls): greater improvement | effects of opioid agonists [3]: enhance the effects of opioid agonists | time to remission after initiating (patients with depression; Patient #1, about 1 mg naltrexone daily): About one | duration of maintained remission (patients with depression; Patient #1, adjunctive naltrexone 1 mg daily, continuing to present): more than 6 months | duration of maintained response (patients with depression; Patient #2): over 2 years | time to response (patients with depression; Patient #2): ≤ 2 weeks | attention (patients with depression; Patient #3, Attention Deficit Disorder, naltrexone 1 mg added, within days): much improved | adverse effects reported (patients with depression; Patient #3, naltrexone 1 mg): no adverse effects | mood response (patients with depression; Patient #3, naltrexone 1 mg added to s-citalopram 15 mg and dextro-amphetamine, within days): marked lifting of mood | duration of observation remaining euthymic (patients with depression; Patient #4): more than two | time to remission (patients with depression; Patient #5): two | duration of improvement (patients with depression; Patient #5, and continuing): five | time to response (patients with depression; Patient #6): one | time to response (patients with depression; Patient #7): three | Kd [4]: < 5 pM

CCCN[C@H]1CCc2nc(N)sc2C1 [pramipexole, (S)—N^6-propyl-4,5,6,7-tetrahydro-1,3-benzothiazole-2,6-diamine]
benefit in depression before naltrexone (patients with depression; Patient #8, pramipexole without naltrexone): limited benefit

— US9278094B2, “Treatments for depression and other diseases with a low dose agent” (PharmoRx Therapeutics, Inc., priority 2013, dated 2016)
